From US20260234116A1, “CYTOTOXIC EPOXYKETONE COMPOUNDS, PRECURSORS, COMPOSITIONS, AND METHODS OF USE” (Memorial Sloan-Kettering Cancer Center, priority 2023, published 2026)

Molecular target: EpnF (Streptomyces hygroscopicus, UniProt V5RMU9)
Experiment: Semiquantitative epoxide capture assay (EpnF-catalyzed epoxyketone formation)
Type: biochemical
Details: 1 μM EpnF, 250 μM β-ketoacid substrate, 1 h; positive control 11n (FIG. 1)
Method: Recombinant EpnF was diluted to 1 μM in 180 μL EpnF Buffer in an 1.5 mL Eppendorf tube. The β-ketoacid 11 was added at various concentrations to a total reaction volume of 200 μL. The mixture was incubated in a heated shaker at 37° C. and 225 rpm for 1 h. The reaction mixture (30 μL×3 technical replicates) was transferred to a white, opaque 96-well plate (PerkinElmer, OptiPlate-96). Each plate also contained 30 μL×3 technical replicates of EpnF Buffer as a negative control. To each well, 15 μL of 125 mM nicotinamide in EpnF Buffer was added and mixed by pipetting. The plate was sealed with an adhesive foil cover (VWR Adhesive Foil for Microplates) and heated in an oven at 80° C. for 1 h. The plate was cooled to rt and 25 μL of 15% (v/v) acetophenone in EtOH and 25 μL of 1 M potassium hydroxide in EtOH were added to each well, then mixed by pipetting. The plate was cooled on ice for 10 min, then 125 μL formic acid was added to each well. The plate was resealed and heated in an oven at 100° C. for 5 min. The plate was cooled on ice for 5-10 min, then analyzed (λex 370 nm, λem 430 nm) on a fluorescence plate reader (Molecular Devices Spectramax M3).
We adapted a reported epoxide capture assay [Nelis, H. J. C. F.; Sinsheimer, J. E. (1981) A sensitive fluorimetric procedure for the determination of aliphatic epoxides under physiological conditions. Anal. Biochem. 115, 151-157.] to 96-well plate format to detect formation of the epoxyketone products semiquantitatively. Each β-ketoacid substrate 11 was incubated with recombinant, purified EpnF (1 h), then reacted with nicotinamide and acetophenone (1 h) to form a fluorescent 1,6-naphthyridinone 24. The fluorescent signals were normalized to that resulting from the known substrate β-ketoacid 11n as a positive control [Zabala, D.; Cartwright, J. W.; Roberts, D. M.; Law, B. J. C.; Song, L.; Samborskyy, M.; Leadlay, P. F.; Micklefield, J.; Challis, G. L. (2016) A flavin-dependent decarboxylase-dehydrogenase-monooxygenase assembles the warhead of α,β-epoxyketone proteasome inhibitors. J. Am. Chem. Soc. 138, 4342-4345.].

Chain of EpnF (V5RMU9 entry or part of it): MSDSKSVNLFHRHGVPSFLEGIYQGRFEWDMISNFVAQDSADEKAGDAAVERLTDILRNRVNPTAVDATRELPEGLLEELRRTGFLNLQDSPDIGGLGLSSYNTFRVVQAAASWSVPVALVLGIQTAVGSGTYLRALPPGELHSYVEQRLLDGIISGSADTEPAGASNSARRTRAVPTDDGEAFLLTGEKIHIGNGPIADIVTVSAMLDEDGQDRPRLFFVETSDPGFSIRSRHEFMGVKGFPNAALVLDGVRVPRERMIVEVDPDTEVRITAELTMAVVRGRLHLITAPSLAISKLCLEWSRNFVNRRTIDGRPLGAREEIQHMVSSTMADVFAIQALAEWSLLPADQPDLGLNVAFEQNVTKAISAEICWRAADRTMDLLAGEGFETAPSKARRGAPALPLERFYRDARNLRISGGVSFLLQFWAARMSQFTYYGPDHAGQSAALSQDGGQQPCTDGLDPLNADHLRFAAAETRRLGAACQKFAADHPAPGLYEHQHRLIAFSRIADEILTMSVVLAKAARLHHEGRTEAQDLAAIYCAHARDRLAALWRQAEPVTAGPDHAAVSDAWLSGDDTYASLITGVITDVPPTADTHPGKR

CC(C)CCCCC(=O)N[C@@H](CO)C(=O)N[C@@H](CC(C)C)C(=O)C(C)(C)C(=O)O [Compound 11a, (4S)-4-[(2S)-3-Hydroxy-2-(6-methylheptanamido)propanamido]-2,2,6-trimethyl-3-oxoheptanoic acid]
EpnF-catalyzed formation of epoxyketone (epoxide capture): levels comparable to that of the positive control
